Tests used:
Assay type in all cases: physicochemical
[1] = Moisture measurement after storage (Karl Fischer water determination); conditions: for Moisture absorption (in words): storage at 40° C. and 75% RH up to 1 month
Procedure: Storage conditions were 40° C. and 75% RH. The periods of time for storage were 1 week, 2 weeks and 1 month. During these storage periods, samples were stored in opened petri dishes. After storage in this manner, the moisture and potency of each sample were measured. The moisture was measured according to REQUIREMENT FOR ANTIBIOTIC PRODUCTS OF JAPAN General Tests MOISTURE DETERMINATION II Water determination. Note that Karl Fischer formamide methanol mixture II was used as the solvent.

[2] = Potency test by liquid chromatography after storage; conditions: for Change of potency over storage time (in words): storage at 40° C. and 75% RH up to 1 month
Procedure: Storage conditions were 40° C. and 75% RH. The periods of time for storage were 1 week, 2 weeks and 1 month. During these storage periods, samples were stored in opened petri dishes.
After storage in this manner, the moisture and potency of each sample were measured.
A potency test was conducted by the following method. About 0.025 g of each of the type IV crystal obtained in Example 4 and type II crystal and a standard product of S-4661 was precisely measured. Each sample was dissolved in water to precisely 100 mL. 10 mL of each solution was precisely measured, to which 5 ml of internal standard solution was added. As the internal standard solution, aqueous acetaminophen solution (concentration 1/20000:1 g of acetaminophen in 20000 ml of the solution) was used. Thereafter, water was added to each solution to 50 mL. Solutions prepared from the type IV or II crystals were used as sample solutions. A solution prepared from a standard product of S-4661 was used as a standard solution. 10 μL of each of the sample solutions and the standard solution were subjected to liquid chromatography under the following conditions. For the sample solution, the ratio QT of the peak area of S-4661 to the peak area of the internal standard substance was obtained. For the standard solution, the ratio QS of the peak area of S-4661 to the peak area of the internal standard substance was obtained.
Conditions for Operation • Detector: ultraviolet absorptiometer (measurement wavelength: 240 nm) • Column: a stainless steel tube having an inner diameter of about 4.6 mm and a length of about 15 cm was filled with 5 μm of octadecylsilylated silica gel for liquid chromatography (L-column ODS). • Column temperature: a constant temperature of around 25° C. • Mobile phase: 2 mmol/L phosphate buffer pH 5.8/acetonitrile mixture (191:9) • Flow rate: Flow rate was adjusted so that the retention time of S-4661 was about 8 to 9 minutes (about 1 mL/min). • Selection of column: 10 μL of standard solution was used and the operation was conducted under the above-described conditions. A column, which elutes S-4661 and the internal standard substance in this order and has a resolution between S-4661 and the internal standard substance of at least 3, was used.
Potencies were calculated by the following expression.

[3] = Assessment of storage stability of crystals; conditions: for Storage stability (in words): compared to conventional type I or II crystals
Procedure: The storage stability of the thus-obtained crystal of the present invention was assessed.
Hereinafter, a result of evaluation of comparing the stability of the crystals of the present invention with that of a conventional crystal (type II crystal) is specifically shown.
The stability of type II crystal of S4661 (conventional crystal) was compared with that of the type IV crystal obtained in the above-described Example 4.

[4] = 1 month storage at 40° C. and 75% RH, opened petri dish
[5] = 1 week storage at 40° C. and 75% RH, opened petri dish
[6] = 2 weeks storage at 40° C. and 75% RH, opened petri dish

| Moisture [1, 4] [%] | Moisture [1, 5] [%] | Moisture [1, 6] [%] | Moisture ([1]; Initial time, before storage) [%] | Moisture level at which moisture became constant ([1]; after about two weeks at 40° C. and 75% RH) | Moisture absorption (in words) ([1]; listed as type II crystal) | Potency [2, 4] [µg/mg] | Potency [2, 5] [µg/mg] | Potency [2, 6] [µg/mg] | Potency ([2]; Initial time, before storage) [µg/mg] | Change of potency over storage time (in words) ([2]; listed as type II crystal) | Moisture absorption (in words) ([1]; listed as type IV crystal) | Storage stability (in words) ([3]; listed as type IV crystal) | Stability relative to type II crystal (other test results, in words) ([3]; other test results) | Change of potency over storage time (in words) ([2]; listed as type IV crystal) | SMILES | Storage stability (in words) ([3]; listed as type III crystal) |
| --- | --- | --- | --- | --- | --- | --- | --- | --- | --- | --- | --- | --- | --- | --- | --- | --- |
| 10.31 | 9.51 | 10.36 | 4.56 | about 10% | absorbs moisture | 826.4 | 956.2 | 923.0 | 983.2 | decreased over time | – | – | – | – | C[C@@H](O)[C@H]1C(=O)N2C(C(=O)O)=C(S[C@@H]3CN[C@H](CNS(N)(=O)=O)C3)[C@H](C)[C@H]12 [Type II, (+)-(4R,5S,6S)-6-[(1R)-1-hydroxyethyl]-4-methyl-7-oxo-3[[(3S,5S)-5-(sulfamoylaminomethyl)pyrrolidin-3-yl]thio]-1-azabicyclo[3.2.0]hept-2-ene-2-carboxylic acid] | – |
| – | – | – | – | – | – | – | – | – | – | – | – | – | – | – | C[C@@H](O)[C@H]1C(=O)N2C(C(=O)O)=C(S[C@@H]3CN[C@H](CNS(N)(=O)=O)C3)[C@H](C)[C@H]12 [Type III, (+)-(4R,5S,6S)-6-[(1R)-1-hydroxyethyl]-4-methyl-7-oxo-3[[(3S,5S)-5-(sulfamoylaminomethyl)pyrrolidin-3-yl]thio]-1-azabicyclo[3.2.0]hept-2-ene-2-carboxylic acid] | excellent storage stability as compared to conventional type I or II crystals |
| 4.99 | 4.79 | 4.89 | 4.62 | – | – | 981.5 | 990.8 | 992.4 | 993.3 | – | absorbs substantially no moisture | more excellent storage stability | more stable than the type II crystal | no significant change | C[C@@H](O)[C@H]1C(=O)N2C(C(=O)O)=C(S[C@@H]3CN[C@H](CNS(N)(=O)=O)C3)[C@H](C)[C@H]12 [Type IV, (+)-(4R,5S,6S)-6-[(1R)-1-hydroxyethyl]-4-methyl-7-oxo-3[[(3S,5S)-5-(sulfamoylaminomethyl)pyrrolidin-3-yl]thio]-1-azabicyclo[3.2.0]hept-2-ene-2-carboxylic acid] | – |

Source: patent US9221823B2, “Crystal form of pyrrolidylthiocarbapenem derivative” (Shionogi & Co., Ltd., priority 2000, dated 2015)
